15 compounds from patent publication US20040249129A1, “Novel lactic bacteria of the genus lactococcus lactis and use thereof for preserving food products” (priority 2001, published 2004) can be followed below.

Where a SMILES comes first, the peptide text is derived from it. Bridges are numbered along the chain shown (N, C = ends). [ ]: non-standard residue; d: D form. The star is where a group is joined. Ileψ(thiazoline)Cys = CC[C@H](C)[C@H](N)C1=N[C@H](C(=O)*)CS1; dOrn = NCCC[C@@H](N)C(=O)O

The experiment deals with LLO strain. The experiment in a line: antibiogram of the strain LLO with antibiotic discs. The format is cell-based, Lactococcus lactis. The following applies: antibiotic discs on Mueller Hinton medium, 5% horse blood, pH 7.3; 48 hours at ambient temperature; streptomycin 10 U.I., kanamycin 30 U.I., gentamicin 10 U.I. The procedure:
An antibiogram has been produced with the strain LLO to study its resistance to several antibiotics.
The test is carried out on Mueller Hinton medium containing 1.7% agar and 5% horse blood, the pH is 7.3. The thickness of the agar in the Petri dishes is constant, it is 4 mm. It is a standardized medium according to the O.M.S. standards.
The LLO strain is cultivated in an MRS broth, pH 6.5, for […] at 15° C. until there is obtained the stationary phase. The culture is diluted to 1/10th in a Mueller Hinton broth. The approximate concentration of the suspension is 10^6 bacteria/ml.
The agar media are completely covered with 2 ml of the suspension. The excess liquid is withdrawn and the dishes are dried 10 minutes at ambient temperature. The antibiotic discs are deposited with the help of tongs (4 maximum). The dishes are incubated at ambient temperature for 48 hours.

As to `CC1(C)S[C@@H]2[C@H](NC(=O)[C@H](N)c3ccccc3)C(=O)N2[C@H]1C(=O)O` [Ampicillin], the “Result (antibiogram)” value is reported as “Noticeable”.
With `CC[C@H](C)[C@H](N)C1=N[C@H](C(=O)N[C@@H](CC(C)C)C(=O)N[C@H](CCC(=O)O)C(=O)N[C@H](C(=O)N[C@H]2CCCCNC(=O)[C@H](CC(N)=O)NC(=O)[C@@H](CC(=O)O)NC(=O)[C@H](Cc3cnc[nH]3)NC(=O)[C@@H](Cc3ccccc3)NC(=O)[C@H]([C@@H](C)CC)NC(=O)[C@@H](CCCN)NC2=O)[C@@H](C)CC)CS1` [Bacitracin] ({Ileψ(thiazoline)Cys}-L[dE]IK[dOrn]I[dF]H[dD]N; lactam 4-C) the entry was “Noticeable”; with `CC1=C(C(=O)O)N2C(=O)[C@@H](NC(=O)[C@H](N)c3ccccc3)[C@H]2SC1` [Cefalexin], “Noticeable”.
With `O=C(N[C@H](CO)[C@H](O)c1ccc([N+](=O)[O-])cc1)C(Cl)Cl` [Chloramphenicol] the entry was “Noticeable”.
With `C[C@H]1c2cccc(O)c2C(O)=C2C(=O)[C@]3(O)C(O)=C(C(N)=O)C(=O)[C@@H](N(C)C)[C@@H]3[C@@H](O)[C@@H]21` [Doxycyclin] the entry was “Noticeable”; with `CCN1CCN(c2cc3c(cc2F)c(=O)c(C(=O)O)cn3C2CC2)CC1` [Enrofloxacin], “Noticeable”.
As for `CC[C@H]1OC(=O)[C@H](C)[C@@H](O[C@H]2C[C@@](C)(OC)[C@@H](O)[C@H](C)O2)[C@H](C)[C@@H](O[C@@H]2O[C@H](C)C[C@H](N(C)C)[C@H]2O)[C@](C)(O)C[C@@H](C)C(=O)[C@H](C)[C@@H](O)[C@]1(C)O` [Erythromycin], the “Result (antibiogram)” value is listed as “Noticeable”.
With `CC1CCc2cc(F)cc3c(=O)c(C(=O)O)cn1c23` (stereo not drawn) [Flumequin] the entry was “Resistant”; with `c1ccoc1` [Furan], “Resistant”.
With `CCC[C@@H]1C[C@@H](C(=O)N[C@@H]([C@H]2O[C@H](SC)[C@H](O)[C@@H](O)[C@H]2O)[C@@H](C)O)N(C)C1` [Lincomycin] the entry was “Noticeable”.
With `CC1(C)S[C@@H]2[C@H](NC(=O)Cc3ccccc3)C(=O)N2[C@H]1C(=O)O` [Penicillin G] the entry was “Noticeable”.
Take `[H]/N=C(/N)N[C@H]1[C@H](O)[C@@H](O)[C@H](O[C@@H]2O[C@@H](C)[C@](O)(C=O)[C@H]2O[C@@H]2O[C@@H](CO)[C@H](O)[C@@H](O)[C@@H]2NC)[C@@H](N/C(N)=N\[H])[C@@H]1O` [Streptomycin]: the “Result (antibiogram)” value was “Noticeable”.
With `CN(C)[C@@H]1C(=O)C(C(N)=O)=C(O)[C@@]2(O)C(=O)C3=C(O)c4c(O)cccc4[C@@](C)(O)[C@H]3C[C@@H]12` [Tetracyclin] the entry was “Noticeable”; with Gentamicin, “Noticeable”; with Spiramycin, “Noticeable”.
